Measurements published in patent publication US4432973A, “Benzoyl- and α-hydroxybenzyl-phenyl-glycosides and application thereof in therapeutics” (Societe de Recherches Industrielles (S.O.R.I.), priority 1980, dated 1984).

Tests used:
[1] = Acute toxicity in the mouse by the I.P. route; type: in vivo; settings: for LD50: read-out: DL-50 (lethal dose involving the death of half of the animals)
Excerpt: The acute toxicity was studied in the mouse by the I.P. route. It is expressed in the form of DL-50 (lethal dose involving the death of half of the animals) or DL-0 (maximum non-lethal dose).

[2] = Anti-hypoxic activity: survival to hypoxia (nitrogen-oxygen 95:5); type: in vivo, mouse (Swiss male); settings: I.P., 1/10th of LD-50 or 100 mg/kg when LD-0 ≥ 800 mg/kg; up to 15 minutes; mouse
Experimental: The experiment is carried out on batches of 20 Swiss male mice weighing from 20 to 30 g. Each product to be tested is administered to the mice by intraperitoneal route at a dose corresponding to 1/10th of the LD-50 or at a dose of 100 mg/kg when the LD-0 is higher than or equal to 800 mg/kg. The mice are placed in a nitrogen-oxygen (95:5) v/v atmosphere. The survival time of the mice is then measured up to 15 minutes maximum.
The results shown in Table VII are expressed in percentage of survival with respect to a non-treated control batch and a batch treated with an anti-hypoxic reference product [specialty known under the trade name of "Duxil" and which is constituted by a mixture of Almitrine bis-methanesulfonate and of Raubasine in the weight ratio 3:1], the anti-hypoxic reference product being administered at the dose of 18 mg/kg I.P.

[3] = Veinous thrombosis: veinous anti-thrombus activity; type: in vivo; settings: Rattus norvegicus, ip, 100 mg/kg I.P., 4 to 5 hours after administration, read-out: Diminution of veinous thrombus
Experimental: The technique used is similar to the one described by Peterson-Zucker in Thrombo.Diath.Haemorh. 23, 1, (1970).
An occlusive thrombus is created in the […] vena cava of a rat by the combined action of an endothelial alteration and a veinous stasis for 15 mins. and 4 to 5 hours after administration of the product to be tested (100 mg/kg I.P.).

[4] = Anti-ulcer activity: ulcer caused by aspirin; type: in vivo, rat (male Wistar); settings: 100 mg/kg I.P.; aspirin 192 mg/kg per os; standardised to control batch and cimetidine (index 1)
Experimental: The experiment is carried out on male Wistar rats of 180 to 200 g. The products to be tested are administered at 100 mg/kg I.P. (unless indicated to the contrary in Table IV).
At t=0, the rats are made to fast and a first administration of the product to be tested is made.
At t=18 hours, 2 ml of an ulcer-forming suspension with 192 mg of aspirin/kg are administered per os then a second administration of the product to be tested is made.
At t=22 hours, the animals are sacrificed and the ulcers are marked as follows: small point-like ulcers: mark 1 more extensive ulcers: mark 3 highly extensive or very deep ulcers: mark 9
This marking is standardised with respect to a control batch and to cimetidine (a reference product) to which index 1 has been allocated.

[5] = tested on: blood platelet aggregation; experiment: Spontaneous aggregation: blood platelet anti-aggregation activity; type: in vivo, rat (adult male); settings: t=5 hours, rat; for inhibition in vivo at 100 mg/kg: ip, 100 mg/kg I.P.
Experimental: The technique used is that of Sanders described in Laboratory Animal Science 27 (No. 5), pages 757-761 (1977).
After administration at 100 mg/kg I.P. (unless specified to the contrary in Table V hereinbelow) of the product to be tested to adult male reproducing rats, two blood samples are taken, one on sodium citrate and the other on sodium citrate treated with formaldehyde at instant t=5 hours.
After centrifugation of the samples, a platelet count is made on the supernatant liquid. The spontaneous aggregation index according to Wu and Hook Stroke 6, 521-524 (1975) is expressed by the relation: [formula]

Compound | Survival (survival percentage to hypoxic aggression) [2] | inhibition in vivo at 100 mg/kg [3] | LD50 ([1]; in vivo, ip, I.P.) | Ulcer index [4] | DL-0 (maximum non-lethal dose) ([1]; I.P.) | other results
O=C(c1ccc(Cl)cc1)c1ccc(O[C@@H]2OC[C@@H](O)[C@H](O)[C@H]2O)cc1 [Example 3] | +++ (higher than or equal to 80%) | 30 to 49% |  |  |  | DL-0 (maximum non-lethal dose) ([1]; in vivo, ip): > 800 mg/kg IP
Cc1ccccc1C(=O)c1cc(C)c(O[C@@H]2OC[C@@H](O)[C@H](O)[C@H]2O)c(C)c1 [Example 21] |  |  | 600 mg/kg | 0.16 |  | inhibition in vivo at 100 mg/kg ([5]; Platelet): ≥ 40%
O=C(c1ccccc1)c1cccc(O[C@@H]2OC[C@@H](O)[C@H](O)[C@H]2O)c1 [Example 45] |  | 30 to 49% |  | 1.11 | > 800 mg/kg IP | 
CC(=O)O[C@@H]1[C@@H](OC(C)=O)[C@H](Oc2ccc(C(=O)c3ccccc3C)cc2)OC[C@H]1OC(C)=O [Example 69] |  | 30 to 49% | 900 mg/kg | 0.78 |  | 
CC(=O)O[C@@H]1[C@@H](OC(C)=O)[C@H](Oc2ccc(C(=O)c3ccccc3Cl)cc2)OC[C@H]1OC(C)=O [Example 70] |  | 30 to 49% |  | 0.56 | > 800 mg/kg IP | 
Cc1cc(C)c(C(=O)c2cccc(O[C@@H]3OC[C@@H](O)[C@H](O)[C@H]3O)c2)c(C)c1 [Example 71] |  | 30 to 49% |  | 0.98 | > 800 mg/kg IP | 
CC(=O)O[C@@H]1[C@@H](OC(C)=O)[C@H](Oc2ccc(C(=O)c3ccc(Br)cc3)cc2)OC[C@H]1OC(C)=O [Example 75] |  | 30 to 49% |  | 0.32 | > 800 mg/kg IP | 
CC(=O)O[C@@H]1[C@@H](OC(C)=O)[C@H](Oc2ccc(C(=O)c3ccc(C)cc3)cc2)OC[C@H]1OC(C)=O [Example 76] | ++ (from 50 to 79%) | 30 to 49% |  | 0.38 |  | DL-0 (maximum non-lethal dose) ([1]; in vivo, ip): > 800 mg/kg IP
COc1cc(C(=O)c2ccc(O[C@@H]3OC[C@@H](OC(C)=O)[C@H](OC(C)=O)[C@H]3OC(C)=O)cc2)cc(OC)c1OC [Example 79] |  |  |  |  | > 800 mg/kg IP | inhibition in vivo at 100 mg/kg ([5]; Platelet): ≥ 40%
COc1ccc(C(=O)c2ccc(O[C@@H]3OC[C@@H](OC(C)=O)[C@H](OC(C)=O)[C@H]3OC(C)=O)cc2)cc1 [Example 81] |  | 30 to 49% |  | 0.64 | > 800 mg/kg IP | 
Cc1cc(C(=O)c2ccccc2C)ccc1O[C@@H]1OC[C@@H](O)[C@H](O)[C@H]1O [Example 85] | + (from 30 to 49%) | ≥ 50% | > 550 mg/kg |  |  | 
OC(c1ccc(O[C@@H]2OC[C@@H](O)[C@H](O)[C@H]2O)cc1)c1ccc(Cl)cc1Cl (stereo partly drawn) [Example 86] |  | 30 to 49% | > 350 mg/kg | 0.50 |  | 
O=[N+]([O-])c1cccc(C(O)c2ccc(O[C@@H]3OC[C@@H](O)[C@H](O)[C@H]3O)cc2)c1 (stereo partly drawn) [Example 87] |  | ≥ 50% | > 600 mg/kg | 0.35 |  | 
OC(c1ccc(O[C@@H]2OC[C@@H](O)[C@H](O)[C@H]2O)cc1)c1ccccc1Cl (stereo partly drawn) [Example 88] |  | ≥ 50% |  | 0.39 | > 800 mg/kg IP | 
Cc1ccccc1C(O)c1ccc(O[C@@H]2OC[C@@H](O)[C@H](O)[C@H]2O)cc1 (stereo partly drawn) [Example 89] |  | ≥ 50% |  | 0.88 | > 800 mg/kg IP | 
OC(c1ccc(Cl)cc1)c1ccc(O[C@@H]2OC[C@@H](O)[C@H](O)[C@H]2O)cc1 (stereo partly drawn) [Example 91] | +++ (higher than or equal to 80%) | 30 to 49% |  | 0.72 |  | DL-0 (maximum non-lethal dose) ([1]; in vivo, ip): > 800 mg/kg IP
OC(c1ccc(Cl)cc1)c1ccc(O[C@@H]2OC[C@@H](O)[C@H](O)[C@H]2O)cc1 (stereo partly drawn) [Example 94] | + (from 30 to 49%) |  |  |  |  | DL-50 (lethal dose involving the death of half of the animals) ([1]; I.P.): 330 mg/kg IP; Inhibition of platelet aggregation ([5]; 33 mg/kg IP): + (inhibition of 25 to 39%)
O=[N+]([O-])c1ccccc1C(O)c1ccc(O[C@@H]2OC[C@@H](O)[C@H](O)[C@H]2O)cc1 (stereo partly drawn) [Example 101] | + (from 30 to 49%) | ≥ 50% |  | 0.56 |  | DL-0 (maximum non-lethal dose) ([1]; in vivo, ip): > 800 mg/kg IP
Cc1cc(C(O)c2ccccc2C)ccc1O[C@@H]1OC[C@@H](O)[C@H](O)[C@H]1O (stereo partly drawn) [Example 105] |  |  | 450 mg/kg |  |  | inhibition in vivo at 45 mg/kg ([5]; Platelet, 45 mg/kg IP): 25 to 39%
CC(=O)O[C@@H]1[C@@H](OC(C)=O)[C@H](Oc2ccc(C(=O)c3cccc(C(F)(F)F)c3)cc2)OC[C@H]1OC(C)=O [Example 108] | + (from 30 to 49%) | 30 to 49% |  | 0.30 |  | DL-0 (maximum non-lethal dose) ([1]; in vivo, ip): > 800 mg/kg IP
CC(=O)O[C@@H]1[C@@H](OC(C)=O)[C@H](Oc2c(C)cc(C(=O)c3ccccc3Cl)cc2C)OC[C@H]1OC(C)=O [Example 113] | +++ (higher than or equal to 80%) |  | 630 mg/kg |  |  | inhibition in vivo at 63 mg/kg ([5]; Platelet, 63 mg/kg IP): ≥ 40%
CC(=O)N[C@H]1[C@H](Oc2c(C)cc(C(=O)c3ccc([N+](=O)[O-])cc3)cc2C)O[C@H](CO)[C@@H](O)[C@@H]1O [Example 119] | +++ (higher than or equal to 80%) | ≥ 50% |  | 0.47 |  | DL-0 (maximum non-lethal dose) ([1]; in vivo, ip): > 800 mg/kg IP
CC(=O)N[C@H]1[C@H](Oc2ccc(C(O)c3ccc([N+](=O)[O-])cc3)cc2)O[C@H](CO)[C@@H](O)[C@@H]1O (stereo partly drawn) [Example 123] | ++ (from 50 to 79%) | 30 to 49% |  |  |  | DL-0 (maximum non-lethal dose) ([1]; in vivo, ip): > 800 mg/kg IP
O=C(c1ccc(O[C@@H]2OC[C@@H](O)[C@H](O)[C@H]2O)cc1)c1ccccc1O [Example 125] | + (from 30 to 49%) | 30 to 49% | 1700 mg/kg |  |  | 
OC[C@H]1O[C@@H](Oc2ccc(C(O)c3ccc(Cl)cc3)cc2)[C@H](O)[C@@H](O)[C@@H]1O (stereo partly drawn) [Example 131] | ++ (from 50 to 79%) | 30 to 49% | 730 mg/kg |  |  | 
